Results on 15 compounds are retold here after patent publication US20260297105A1, “RAF-MEK PROTEIN COMPLEX MODULATORS AND METHODS OF USE THEREOF” (GANDEEVA THERAPEUTICS, INC., priority 2023, published 2026).

One test addresses T1, MEK1 (Homo sapiens, UniProt Q02750).
T1 construct: purchased SignalChem M02-14H
The test is described as follows: MEK1 kinase cascade assay (ADP-Glo), inhibition of MEK1 kinase activity. The class given is biochemical. The following applies: 25 nM BRAF, 6.25 nM MEK1, 0.5 μM ERK, 1 mM ATP; 20 min preincubation, 1 hr at 25° C.; read-out: BRAF ADP Glo kinase assay V3 (IC50). The essentials: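 Cascade format with ADP-Glo read-out: BRAF (25 nM) and compound, 1% DMSO, 20 mins at 25° C, then MEK1 6.25 nM, ERK1 0.5 μM, ATP 1 mM for 1 hr at 25° C in HEPES pH 7.5 buffer with MgCl2, CHAPS and DTT. Percent inhibition, scaled between DMSO and 1 μM Trametinib, was fit by 4-parameter logistic to give IC50 (2 replicate wells).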
(ADP-Glo turns the ADP formed in a reaction into a luminescent signal.)

In another test the test system is p-ERK1/2 in HCT116 cells. The test is described as follows: AlphaLISA p-ERK assay, cellular inhibition of ERK phosphorylation in HCT116 cells. In kind it is cell-based. The following applies: Homo sapiens, HCT-116, 2 hours treatment, PMA stimulation 30 mins. The procedure:
(§1) Cell culture: HCTI 16, HT-29, and NCI-H292 cells were acquired from American Type Culture Collection (ATCC). HCT116 and HT-29 cells were maintained in ATCC-formulated McCoy's 5a Medium Modified supplemented with 10% fetal bovine serum, NCI-H292 cells were cultured in ATCC formulated RPMI-1640 supplemented with 10% fetal bovine serum. All cells were maintained at 37° C., 5% CO2.
Efficacy of exemplary compounds in cellular inhibition of ERK phosphorylation: Phosphorylation status of ERK1/2 (p-ERK) was used as a readout for inhibition of BRAF-MEK pathway. p-ERK was detected using an immunoassay for quantitative detection of phospho-ERK 1/2 (phosphorylated on Thr202/Tyr204 in ERK1, or Thr185/Tyr187 in ERK2), such as the AlphaLISA® SureFire® Ultra™ p-ERK1/2 (Thr202/Tyr204) kit (Perkin Elmer). HCT116 cells were plated at 10,000 cells per well in 384-well TC-treated plates (Coming). Cells were plated for 24 hours, the medium was then aspirated and cells were treated with vehicle (DMSO) or test compounds (0.1% DMSO in final volume) prepared in serum free, phenol red free medium for 2 hours. Following treatment, cells were stimulated with PMA (1.25 μM/well) for 30 mins after which the medium was aspirated, and the cells were lysed for 10 mins with 1× lysis buffer supplemented with Halt Protease and Phosphatase Inhibitor Cocktail (Thermo Fisher). The lysate was transferred to a 384 well Alpha-plate (PerkinElmer) and incubated for 1 hour with acceptor bead mix followed by 1 hour incubation with donor bead mix. After incubation, the plate was read on a Cytation5 microplate reader (Agilent). % inhibition as a function of compound concentration from 3 replicate wells was fit with a 4-parameter logistic curve using GraphPad Prism or CDD Vault to derive IC50 values.
(§2) In this table, for the BRAF ADP Glo kinase assay, “A” indicates IC50 of less than 5 nM; “B” indicates IC50 of between 5 nM to 50 nM; and “C” indicates IC50 of between 50 nM to 500 nM. “D” indicates IC50 of greater than 500 nM. For the BRAF-MEK TR-FRET assay, “A” indicates EC50 of less than 50 nM; “B” indicates EC50 of between 50 nM to 200 nM; and “C” indicates EC50 of between 200 nM to 1 μM. “D′” indicates EC50 of greater than 1 μM. For the AlphaLisa P-ERK assay, “A” indicates IC50 of less than 1 nM; “B” indicates IC50 of between 1 nM to 10 nM; and “C” indicates IC50 of between 10 nM to 100 nM. “D” indicates IC50 of greater than 100 nM. For the cell viability assay, “A” indicates IC50 of less than 1 nM; “B” indicates IC50 of between 1 nM to 10 nM; and “C” indicates IC50 of between 10 nM to 100 nM. “D” indicates IC50 of greater than 100 nM.

The next test concerns NCI-H292 cells. The test is described as follows: Cell viability assay (CellTiter-Glo), NCI-H292. In kind it is cell-based. As to conditions: Homo sapiens, 72 hrs, read-out: Cell Viability Assay: IC50 Determination NCI-H292. The procedure:
as §1
Efficacy of exemplary compounds in inhibition of cell viability: HCT116 and HT-29 cells were plated at 4,000 cells per well and NCI-H292 cells were plated at 2,000 cells per well in their respective media in 384-well white, TC-treated plates (Corning). After 24 hours of incubation, the cells were treated with vehicle (DMSO) or test compounds (0.1% DMSO in final volume) for 72 hrs. The plate was equilibrated at room temperature for 10 mins followed by addition of a 1:1 volume of CellTiter-Glo® reagent (Promega). The contents were mixed for 2 mins on an orbital shaker to induce lysis. The plate was incubated at room temperature for 10 mins to stabilize luminescent signal before measuring luminescence on a Cytation5 microplate reader (Agilent). % inhibition as a function of compound concentration from 3 replicate wells was fit with a 4-parameter logistic curve using GraphPad Prism or CDD Vault to derive IC50 values.
as §2
(ATP-based viability assays read luminescence as a measure of living cells.)

A further test concerns BRAF-MEK1. In words: BRAF-MEK TR-FRET assay, stabilization of MEK1 and BRAF interaction. In kind it is binding. As to conditions: 4 nM BRAF, 10 nM MEK, 100 μM ATP; 1 hr at 25° C.; read-out: BRAF-MEK TR-FRET Assay (EC50, fold stabilization). Put shortly:
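Read-out is fold stabilization (treated FRET ratio/DMSO, Em 665/620 nm), fit 4-parameter for EC50 from 2 replicates. Compounds sat with 4 nM GST-BRAF and 10 nM in-house His-MEK1 1 h at 25° C (Tris pH 7.5, MgCl2, 100 μM ATP), then detection antibodies 1 h.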
In general terms: In TR-FRET formats the signal depends on donor and acceptor labels being close together.

T1 sequence (Q02750 whole entry): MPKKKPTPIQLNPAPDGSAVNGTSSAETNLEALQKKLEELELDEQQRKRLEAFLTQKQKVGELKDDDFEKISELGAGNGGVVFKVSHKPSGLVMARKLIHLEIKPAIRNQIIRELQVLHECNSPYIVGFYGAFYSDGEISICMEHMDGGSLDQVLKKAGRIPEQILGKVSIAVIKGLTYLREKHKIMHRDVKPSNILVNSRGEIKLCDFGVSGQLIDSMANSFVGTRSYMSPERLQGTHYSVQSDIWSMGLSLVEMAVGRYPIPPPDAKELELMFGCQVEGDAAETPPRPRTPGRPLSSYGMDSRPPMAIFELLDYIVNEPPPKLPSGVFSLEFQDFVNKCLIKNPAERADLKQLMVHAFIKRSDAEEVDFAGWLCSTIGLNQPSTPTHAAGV
T1 sequence (P15056 445-723 partner limits assumed): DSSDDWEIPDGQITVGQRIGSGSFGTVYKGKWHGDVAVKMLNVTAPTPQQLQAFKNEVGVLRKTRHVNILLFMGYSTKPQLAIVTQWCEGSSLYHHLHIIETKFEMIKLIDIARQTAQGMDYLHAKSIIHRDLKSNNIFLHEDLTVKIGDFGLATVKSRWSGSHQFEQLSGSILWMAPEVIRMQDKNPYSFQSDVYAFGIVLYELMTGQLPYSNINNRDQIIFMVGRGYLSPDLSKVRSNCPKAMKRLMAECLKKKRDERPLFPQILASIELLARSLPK

On to `O=C1Oc2cc(Oc3cccnn3)ccc2C2(COC2)N1Cc1cccc(NS(=O)(=O)C2CC2)c1F` [Compound 59, N-(2-fluoro-3-{[2-oxo-7-(pyridazin-3-yloxy)-2,3-dihydrospiro[1,3-benzoxazine-4,3′-oxetan]-3-yl]methyl}phenyl)cyclopropanesulfonamide], for which the IC50 (as a rule, the concentration that gives 50% inhibition) on MEK1 is 5 to 50 nM; with p-ERK1/2 in HCT116 cells, 1 to 10 nM; in the test on NCI-H292 cells it was 1 to 10 nM.

For `CNS(=O)(=O)Nc1cccc(CN2Cc3ccc(Oc4cccnn4)cc3OC2=O)c1F` [Compound 105, 3-({2-fluoro-3-[(methylsulfamoyl)amino]phenyl}methyl)-7-(pyridazin-3-yloxy)-3,4-dihydro-2H-1,3-benzoxazin-2-one], the figures for the IC50 at MEK1, with p-ERK1/2 in HCT116 cells and in the test with NCI-H292 cells were < 5 nM, 1 to 10 nM and 1 to 10 nM, respectively. In addition, in the test with BRAF-MEK1, the EC50 was < 50 nM.

`CNS(=O)(=O)Nc1cccc(CN2C(=O)Oc3cc(Oc4cccnn4)c(F)cc3C23COC3)c1F` [Compound 58, 6-fluoro-3-({2-fluoro-3-[(methylsulfamoyl)amino]phenyl}methyl)-7-(pyridazin-3-yloxy)-2,3-dihydrospiro[1,3-benzoxazine-4,3′-oxetan]-2-one]: the IC50 is < 5 nM at MEK1, < 1 nM in the test on p-ERK1/2 in HCT116 cells and < 1 nM in the test with NCI-H292 cells. Further, in the test on BRAF-MEK1, the EC50 is < 50 nM.

For `CNS(=O)(=O)Nc1cccc(CN2C(=O)Oc3cc(Oc4cccnn4)ccc3[C@@H]2C)c1F` (single isomer, unassigned) [Compound 72, (R)-3-({2-fluoro-3-(methylsulfamoyl)amino]phenyl}methyl)-4-methyl-7-(pyridazin-3-yloxy)-3,4-dihydro-2H-1,3-benzoxazin-2-one or (S)-3-({2-fluoro-3-(methylsulfamoyl)amino]phenyl}methyl)-4-methyl-7-(pyridazin-3-yloxy)-3,4-dihydro-2H-1,3-benzoxazin-2-one], the figures for the IC50 at MEK1, in the test on p-ERK1/2 in HCT116 cells and with NCI-H292 cells were 5 to 50 nM, 1 to 10 nM and 1 to 10 nM, respectively. The EC50 in the test with BRAF-MEK1 lay within 50 to 200 nM.

As to `CN(C)C(=O)Oc1ccc2c(c1)OC(=O)N(Cc1cccc(CN3CCOC3=O)c1F)C2` [Compound 21, 3-(2-fluoro-3-((2-oxooxazolidin-3-yl)methyl)benzyl)-2-oxo-3,4-dihydro-2H-benzo[e][1,3]oxazin-7-yl dimethylcarbamate], the IC50 at MEK1 was 5 to 50 nM; with p-ERK1/2 in HCT116 cells, 1 to 10 nM. For the same compound, in the test on BRAF-MEK1, the EC50 lay in the range of 200 to 1000 nM.

As for `CNS(=O)(=O)Nc1cccc(CN2Cc3ccc(Oc4ccccn4)cc3OC2=O)c1F` [Compound 65, 3-({2-fluoro-3-[(methylsulfamoyl)amino]phenyl}methyl)-7-(pyridin-2-yloxy)-3,4-dihydro-2H-1,3-benzoxazin-2-one], the IC50 was < 5 nM at MEK1, 10 to 100 nM in the test on p-ERK1/2 in HCT116 cells and 10 to 100 nM with NCI-H292 cells.

In the case of `CNS(=O)(=O)Nc1nccc(CN2C(=O)Oc3cc(Oc4cccnn4)ccc3[C@@H]2C)c1F` (single isomer, unassigned) [Compound 22], the IC50 lay within 5 to 50 nM at MEK1 and 10 to 100 nM in the test with p-ERK1/2 in HCT116 cells. The EC50 in the test on BRAF-MEK1 fell in the range of 50 to 200 nM.

As to `CNS(=O)(=O)Nc1nccc(CN2C(=O)Oc3cc(Oc4cccnn4)ccc3C23CCC3)c1F` [Compound 20, 3-{[3-fluoro-2-(methylaminosulfonylamino)-4-pyridyl]methyl}-7-(3-pyridazinyloxy)-2H,3H-spiro[1,3-benzoxazine-4,1′-cyclobutan]-2-one], the IC50 is < 5 nM at MEK1 and 1 to 10 nM in the test with p-ERK1/2 in HCT116 cells. The EC50 in the test on BRAF-MEK1 is < 50 nM.

`CNS(=O)(=O)Nc1cccc(CN2C(=O)Oc3cc(Oc4cccnn4)c(F)cc3C23CCC3)c1F` [Compound 19, 6-fluoro-3-{1[2-fluoro-3-(methylaminosulfonylamino)phenyl]methyl}-7-(3-pyridazinyloxy)-2H,3H-spiro[1,3-benzoxazine-4,1′-cyclobutan]-2-one]: the figures for the IC50 on MEK1 and in the test with p-ERK1/2 in HCT116 cells were 5 to 50 nM and < 1 nM, respectively. The EC50 with BRAF-MEK1 is < 50 nM.

With `CNS(=O)(=O)Nc1nccc(CN2Cc3ccc(Oc4ncco4)cc3OC2=O)c1F` [Compound 162, 3-{[3-fluoro-2-(methylaminosulfonylamino)-4-pyridyl]methyl}-7-(1,3-oxazol-2-yloxy)-3,4-dihydro-2H-1,3-benzoxazin-2-one], in the test with BRAF-MEK1, the EC50 lay in the range of 50 to 200 nM. For the same compound, the IC50 lay in the range of 10 to 100 nM with p-ERK1/2 in HCT116 cells and 1 to 10 nM in the test with NCI-H292 cells.

Consider `O=C1Oc2cc(Oc3ccccn3)ccc2CN1Cc1cccc(NS(=O)(=O)C2CC2)c1F` [Compound 62, N-(2-fluoro-3-((2-oxo-7-(pyridin-2-yloxy)-2H-benzo[e][1,3]oxazin-3(4H)-yl)methyl)phenyl)cyclopropanesulfonamide], for which the IC50 at MEK1 was 5 to 50 nM; in the test on p-ERK1/2 in HCT116 cells it was > 100 nM; with NCI-H292 cells, > 100 nM.

Take `O=C1Oc2cc(Oc3nccnn3)ccc2C2(CCC2)N1Cc1ccnc(NS(=O)(=O)C2CC2)c1F` [Compound 161, (cyclopropylsulfonyl)[3-fluoro-4-({2-oxo-7-(1,2,4-triazin-3-yloxy)-2H,3H-spiro[1,3-benzoxazine-4,1′-cyclobutan]-3-yl}methyl)-2-pyridyl]amine]: in the test on BRAF-MEK1, the EC50 fell in the range of 50 to 200 nM. Besides, the IC50 in the test on p-ERK1/2 in HCT116 cells lay in the range of 10 to 100 nM; in the test on NCI-H292 cells, 1 to 10 nM.

In the case of `CNS(=O)(=O)Nc1cccc(CN2Cc3cc(Cl)c(Oc4ncccn4)cc3OC2=O)c1F` [Compound 148, 6-chloro-3-({2-fluoro-3-[(methylsulfamoyl)amino]phenyl}methyl)-7-(pyrimidin-2-yloxy)-3,4-dihydro-2H-1,3-benzoxazin-2-one], the IC50 at MEK1 was 5 to 50 nM; in the test on p-ERK1/2 in HCT116 cells, 10 to 100 nM; in the test with NCI-H292 cells, 10 to 100 nM.

For `CNS(=O)(=O)Nc1nccc(CN2C(=O)Oc3cc(Oc4cccnn4)c(F)cc3C23COC3)c1F` [Compound 18, 6-fluoro-3-{[3-fluoro-2-(methylaminosulfonylamino)-4-pyridyl]methyl}-7-(3-pyridazinyloxy)-2H,3H-spiro[1,3-benzoxazine-4,3′-oxetan]-2-one], the figures for the IC50 on MEK1 and in the test with p-ERK1/2 in HCT116 cells were 5 to 50 nM and 10 to 100 nM, respectively. Further, the EC50 with BRAF-MEK1 is < 50 nM.

For `CNS(=O)(=O)Nc1cccc(CN2Cc3ccc(C(F)(F)C(=O)N(C)C)cc3OC2=O)c1F` [Compound 133], the figures for the concentration for half-maximal inhibition (IC50) on MEK1, with p-ERK1/2 in HCT116 cells and with NCI-H292 cells were 5 to 50 nM, 10 to 100 nM and 10 to 100 nM, respectively.
